{"source": "PubChem BioAssay (NCI)", "test_in_all_cases": "NCI tumour cell line growth inhibition, 48 h", "key": {"[1]": {"tested_on": "LOX IMVI melanoma"}, "[2]": {"tested_on": "KM12 colon"}, "[3]": {"tested_on": "HS 578T breast"}, "[4]": {"tested_on": "NCI-H522 lung"}, "[5]": {"tested_on": "MOLT-4 leukemia"}, "[6]": {"tested_on": "SN12C renal"}, "[7]": {"tested_on": "DU-145 prostate"}, "[8]": {"tested_on": "RXF 393 renal"}, "[9]": {"tested_on": "IGROV1 ovarian"}, "[10]": {"tested_on": "K-562 leukemia"}, "[11]": {"tested_on": "OVCAR-8 ovarian"}, "[12]": {"tested_on": "786-0 renal"}, "[13]": {"tested_on": "SK-MEL-2 melanoma"}, "[14]": {"tested_on": "SR leukemia"}, "[15]": {"tested_on": "A498 renal"}, "[16]": {"tested_on": "MDA-MB-435"}, "[17]": {"tested_on": "SF-268 CNS"}, "[18]": {"tested_on": "COLO 205 colon"}, "[19]": {"tested_on": "HOP-92 NSCLC"}, "[20]": {"tested_on": "EKVX NSCLC"}, "[21]": {"tested_on": "UACC-62 melanoma"}, "[22]": {"tested_on": "SNB-19 CNS"}, "[23]": {"tested_on": "SK-MEL-28 melanoma"}, "[24]": {"tested_on": "OVCAR-5 ovarian"}, "[25]": {"tested_on": "HCT-15 colon"}, "[26]": {"tested_on": "HCT-116 colon"}, "[27]": {"tested_on": "UO-31 renal"}, "[28]": {"tested_on": "NCI-H460 lung"}, "[29]": {"tested_on": "PC-3 prostate"}, "[30]": {"tested_on": "HT29 colon"}, "[31]": {"tested_on": "SF-295 CNS"}, "[32]": {"tested_on": "M14 melanoma"}, "[33]": {"tested_on": "SW-620 colon"}, "[34]": {"tested_on": "HOP-62 NSCLC"}, "[35]": {"tested_on": "ACHN renal"}, "[36]": {"tested_on": "BT-549 breast"}, "[37]": {"tested_on": "OVCAR-4 ovarian"}, "[38]": {"tested_on": "NCI/ADR-RES ovarian"}, "[39]": {"tested_on": "CAKI-1 renal"}, "[40]": {"tested_on": "HCC-2998 colon"}, "[41]": {"tested_on": "OVCAR-3 ovarian"}, "[42]": {"tested_on": "SK-MEL-5 melanoma"}, "[43]": {"tested_on": "CCRF-CEM leukemia"}, "[44]": {"tested_on": "U251 CNS"}, "[45]": {"tested_on": "UACC-257 melanoma"}, "[46]": {"tested_on": "MCF7 breast"}, "[47]": {"tested_on": "NCI-H226 lung"}, "[48]": {"tested_on": "SF-539 CNS"}, "[49]": {"tested_on": "RPMI-8226 leukemia"}, "[50]": {"tested_on": "T-47D breast"}, "[51]": {"tested_on": "TK-10 renal"}, "[52]": {"tested_on": "HL-60(TB) leukemia"}, "[53]": {"tested_on": "NCI-H23 lung"}, "[54]": {"tested_on": "MDA-MB-231 breast"}}, "note": "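Where inhibition never reached the appropriate level, the endpoint shown equals the highest concentration tested. Otherwise, values were interpolated linearly from a five-concentration, 48-hour dose response in 96-well plates. The concentration for full growth arrest is given as TGI.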", "data": [{"compound": "O=c1oc2ccccc2c2c1Sc1ccccc1N2", "values": [{"measurement": "TGI", "setting": "[1]", "result": "> 100", "unit": "µM"}, {"measurement": "TGI", "setting": "[2]", "result": "> 100", "unit": "µM"}, {"measurement": "TGI", "setting": "[3]", "result": "> 100", "unit": "µM"}, {"measurement": "TGI", "setting": "[4]", "result": "> 100", "unit": "µM"}, {"measurement": "TGI", "setting": "[5]", "result": "> 100", "unit": "µM"}, {"measurement": "TGI", "setting": "[6]", "result": "> 100", "unit": "µM"}, {"measurement": "TGI", "setting": "[7]", "result": "> 100", "unit": "µM"}, {"measurement": "TGI", "setting": "[8]", "result": "> 100", "unit": "µM"}, {"measurement": "TGI", "setting": "[9]", "result": "> 100", "unit": "µM"}, {"measurement": "TGI", "setting": "[10]", "result": "> 100", "unit": "µM"}, {"measurement": "TGI", "setting": "[11]", "result": "> 100", "unit": "µM"}, {"measurement": "TGI", "setting": "[12]", "result": "> 100", "unit": "µM"}, {"measurement": "TGI", "setting": "[13]", "result": "> 100", "unit": "µM"}, {"measurement": "TGI", "setting": "[14]", "result": "> 100", "unit": "µM"}, {"measurement": "TGI", "setting": "[15]", "result": "> 100", "unit": "µM"}, {"measurement": "TGI", "setting": "[16]", "result": "> 100", "unit": "µM"}, {"measurement": "TGI", "setting": "[17]", "result": "> 100", "unit": "µM"}, {"measurement": "TGI", "setting": "[18]", "result": "> 100", "unit": "µM"}, {"measurement": "TGI", "setting": "[19]", "result": "> 100", "unit": "µM"}, {"measurement": "TGI", "setting": "[20]", "result": "> 100", "unit": "µM"}, {"measurement": "TGI", "setting": "[21]", "result": "> 100", "unit": "µM"}, {"measurement": "TGI", "setting": "[22]", "result": "> 100", "unit": "µM"}, {"measurement": "TGI", "setting": "[23]", "result": "> 100", "unit": "µM"}, {"measurement": "TGI", "setting": "[24]", "result": "> 100", "unit": "µM"}, {"measurement": "TGI", "setting": "[25]", "result": "> 100", "unit": "µM"}, {"measurement": "TGI", "setting": "[26]", "result": "> 100", "unit": "µM"}, {"measurement": "TGI", "setting": "[27]", "result": "> 100", "unit": "µM"}, {"measurement": "TGI", "setting": "[28]", "result": "> 100", "unit": "µM"}, {"measurement": "TGI", "setting": "[29]", "result": "> 100", "unit": "µM"}, {"measurement": "TGI", "setting": "[30]", "result": "> 100", "unit": "µM"}, {"measurement": "TGI", "setting": "[31]", "result": "> 100", "unit": "µM"}, {"measurement": "TGI", "setting": "[32]", "result": "> 100", "unit": "µM"}, {"measurement": "TGI", "setting": "[33]", "result": "> 100", "unit": "µM"}, {"measurement": "TGI", "setting": "[34]", "result": "> 100", "unit": "µM"}, {"measurement": "TGI", "setting": "[35]", "result": "> 100", "unit": "µM"}, {"measurement": "TGI", "setting": "[36]", "result": "> 100", "unit": "µM"}, {"measurement": "TGI", "setting": "[37]", "result": "> 100", "unit": "µM"}, {"measurement": "TGI", "setting": "[38]", "result": "> 100", "unit": "µM"}, {"measurement": "TGI", "setting": "[39]", "result": "> 100", "unit": "µM"}, {"measurement": "TGI", "setting": "[40]", "result": "> 100", "unit": "µM"}, {"measurement": "TGI", "setting": "[41]", "result": "> 100", "unit": "µM"}, {"measurement": "TGI", "setting": "[42]", "result": "> 100", "unit": "µM"}, {"measurement": "TGI", "setting": "[43]", "result": "> 100", "unit": "µM"}, {"measurement": "TGI", "setting": "[44]", "result": "> 100", "unit": "µM"}, {"measurement": "TGI", "setting": "[45]", "result": "> 100", "unit": "µM"}, {"measurement": "TGI", "setting": "[46]", "result": "> 100", "unit": "µM"}, {"measurement": "TGI", "setting": "[47]", "result": "> 100", "unit": "µM"}, {"measurement": "TGI", "setting": "[48]", "result": "> 100", "unit": "µM"}, {"measurement": "TGI", "setting": "[49]", "result": "> 100", "unit": "µM"}, {"measurement": "TGI", "setting": "[50]", "result": 45.1, "unit": "µM"}, {"measurement": "TGI", "setting": "[51]", "result": "> 100", "unit": "µM"}, {"measurement": "TGI", "setting": "[52]", "result": "> 100", "unit": "µM"}, {"measurement": "TGI", "setting": "[53]", "result": "> 100", "unit": "µM"}, {"measurement": "TGI", "setting": "[54]", "result": "> 100", "unit": "µM"}]}]}
